Data reported in patent publication US20260125359A1, “HETEROARYL COMPOUNDS AS MULTI-TARGET PROTEIN KINASE INHIBITORS” (FUJIAN HAIXI PHARMACEUTICALS CO., LTD., priority 2023, published 2026).

System: M-NFS-60 cells
Test: M-NFS-60 cell in vitro assay (CCK, 48 h, M-CSF factor medium)
Assay type: cell-based
Conditions: M-NFS-60 cells; read-out: M-NFS-60cellassay IC50
Method in brief: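 IC50 values were fitted from CCK absorbance (450 nm, 2 h development) after 48 h compound treatment. Cells: M-NFS-60, seeded 2000/well and rested 4 h, grown in medium carrying 25 ng/ml M-CSF factor plus 10% serum; compounds serially diluted in DMSO.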

| SMILES | IC50 [µM] |
| --- | --- |
| Cn1cc(-c2cnc(N)c(O[C@H]3CCc4c(NC(=O)c5cccc(C6CC6)c5)cccc43)c2)cn1 [Compound 3g] | < 0.05 |
| Cn1cc(-c2cnc(N)c(O[C@H]3CCc4c(NC(=O)c5csc6ccccc56)cccc43)c2)cn1 [Compound 3d] | < 0.05 |
| CC(C)(CO)c1cc(Nc2cccc3c2CC[C@@H]3Nc2cncc(Cl)c2)no1 [Compound 42c] | < 0.05 |
| Cn1cc(-c2cncc(N[C@H]3CCc4c(NC(c5cccc(Cl)c5)C(F)(F)F)cccc43)n2)cn1 (stereo partly drawn) [Compound 61, (1S)—N^4-(1-(3-chlorophenyl)-2,2,2-trifluoroethyl)-N1-(6-(1-methyl-1H-pyrazol-4-yl)pyrazin-2-yl)-2,3-dihydro-1H-indene-1,4-diamine] | > 0.5 |
| Cn1cc(-c2cncc(N[C@H]3CCc4c(NC(=O)c5cccc(CN6CCCCC6)c5)cccc43)c2)cn1 [Compound 28a] | > 0.5 |
| CN1CCC(NC(=O)c2cccc3c2CC[C@@H]3Nc2cncc(-c3cnn(C)c3)n2)CC1 [Compound 27h] | > 0.5 |
| COc1ccc(NCc2cccc3c2CC[C@@H]3Nc2cncc(-c3cnn(C)c3)c2)cc1 [Compound 59a] | 0.2 to 0.5 |
| Cn1cc2ncc(N[C@H]3CCc4c(Nc5cc(C6(C)CCCC6)on5)cccc43)cc2n1 [Compound 91l] | < 0.05 |
| Cn1ncc2ncc(N[C@H]3CCc4c(C(=O)Nc5cccc(C6CC6)c5)cccc43)nc21 [Compound 88, (S)—N-(3-cyclopropylphenyl)-1-((1-methyl-1H-pyrazolo[3,4-b]pyrazin-6-yl)amino)-2,3-dihydro-1H-indene-4-carboxamide] | < 0.05 |
| CC(C)(C)c1cc(Nc2cccc3c2CC[C@@H]3Nc2cncc(Cl)c2)no1 [Compound 42a] | 0.05 to 0.2 |
| Cn1cc(-c2cncc(N[C@H]3CCc4c(C(=O)N5CCCCC5)cccc43)n2)cn1 [Compound 27b] | > 0.5 |
| Cc1cccc(C(=O)Nc2cc(F)cc3c2CC[C@@H]3Nc2cncc(-c3cnn(C)c3)c2)c1 [Compound 46a] | < 0.05 |
| Cn1cc(-c2cncc(N[C@H]3CCc4c(C(=O)NN5CCCCC5)cccc43)n2)cn1 [Compound 27j] | > 0.5 |
| Cc1cncc(NC(=O)c2cccc3c2CC[C@@H]3Oc2cnc3cn(C)nc3c2)c1 [Compound 76ba] | < 0.05 |
| Cn1cc(-c2cncc(NC3CCc4c(NC(=O)c5cccc(C6CC6)c5)ccnc43)c2)cn1 (centres unmarked) [Compound 44e] | 0.2 to 0.5 |
| Cn1ncc2ncc(O[C@H]3CCc4c(C(=O)Nc5ccc(F)c(Cl)c5)cccc43)cc21 [Compound 76an] | < 0.05 |
| Cn1cc(-c2cnc(N)c(O[C@H]3CCc4c(NC(=O)c5ccc6c(c5)OC(F)(F)O6)cccc43)c2)cn1 [Compound 3c] | 0.05 to 0.2 |
| Cn1cc(-c2cncc(N[C@H]3CCc4c(C(=O)Nc5cccc(C6CC6)c5)cccc43)c2)cn1 [Compound 14aw] | < 0.05 |
| CN1CC(c2cccc(NC(=O)c3cccc4c3CC[C@@H]4Oc3cncc(-c4cnn(C)c4)c3)c2)C1 [Compound 19o] | 0.05 to 0.2 |
| Cn1cc2ncc(N[C@H]3CCc4c(Nc5noc(C6(C)CC6)n5)cccc43)cc2n1 [Compound 93d] | < 0.05 |
| COc1cc(NC(=O)c2cccc3c2CC[C@@H]3N(C)c2cnc3cnn(C)c3c2)ccc1F [Compound 80d] | < 0.05 |

| SMILES | IC50 [µM] |
| --- | --- |
| CNCc1cccc(NC(=O)c2cccc3c2CC[C@@H]3Oc2cncc(-c3cnn(C)c3)c2)c1 [Compound 19l] | > 0.5 |
| Cc1cccc(C(=O)Nc2cccc3c2CC[C@H]3Oc2cncc(-c3cnn(C)c3)c2)c1 [Compound 16, (R)-3-methyl-N-(1-((5-(1-methyl-1H-pyrazol-4-yl)pyridin-3-yl)oxy)-2,3-dihydro-1H-inden-4-yl)benzamide] | > 0.5 |
| COc1ccc(NC(=O)c2cccc3c2CC[C@@H]3Nc2cncc(-c3cnn(C)c3)c2)cc1 [Compound 14am] | < 0.05 |
| Cn1cc2ncc(N[C@H]3CCc4c(Nc5noc(C6CC6)n5)cccc43)cc2n1 [Compound 93j] | 0.2 to 0.5 |
| CN(c1cnc2cn(C)nc2c1)[C@H]1CCc2c(C(=O)Nc3ccc(F)c(Cl)c3)cccc21 [Compound 80t] | < 0.05 |
| Cn1cc(-c2cncc(N[C@H]3CCc4c(NC(=O)c5cccc(C6CC6)c5)ccc(F)c43)c2)cn1 [Compound 46c] | < 0.05 |
| Cn1cc2ncc(N[C@H]3CCc4c(Nc5cc(C(C)(C)C)on5)cccc43)cc2n1 [Compound 90, (S)—N^4-(5-(tert-butyl)isoxazol-3-yl)-N^1-(2-methyl-2H-pyrazolo[4,3-b]pyridin-6-yl)-2,3-dihydro-1H-indene-1,4-diamine] | < 0.05 |
| Cn1cc2ncc(N[C@H]3CCc4c(Nc5noc(C6(C(F)(F)F)CC6)n5)cccc43)cc2n1 [Compound 93g] | < 0.05 |
| Cn1cc(-c2cncc(N[C@H]3CCc4c(C(=O)NC5CCC(F)(F)CC5)cccc43)n2)cn1 [Compound 27f] | < 0.05 |
| Cn1cc(-c2cncc(N[C@H]3CCc4c(C(=O)Nc5cncc(C(F)(F)F)c5)cccc43)c2)cn1 [Compound 14ak] | < 0.05 |
| Cn1cc(-c2cncc(N[C@H]3CCc4c(C(=O)Nc5cccc(C6CC6)c5)cccc43)n2)cn1 [Compound 27a] | < 0.05 |
| Cc1cccc(NC(=O)c2cccc3c2CC[C@@H]3Oc2cnc3cn(C)nc3c2)c1F [Compound 76aj] | < 0.05 |
| CN1CCN(c2cccc(C(=O)Nc3cccc4c3CC[C@@H]4Nc3cncc(-c4cnn(C)c4)n3)c2)CC1 [Compound 25e] | 0.05 to 0.2 |
| COc1cc(NC(=O)c2cccc3c2CC[C@@H]3N(C)c2cnc3cn(C)nc3c2)ccc1F [Compound 80v] | < 0.05 |
| Cn1ccc2ncc(N[C@H]3CCc4c(C(=O)Nc5cccc(C6CC6)c5)cccc43)cc21 [Compound 74e] | < 0.05 |
| CN(C)Cc1cccc(NC(=O)c2cccc3c2CC[C@@H]3Oc2cc(-c3cnn(C)c3)cnc2N)c1 [Compound 5e] | < 0.05 |
| CN1CCC[C@@H]1c1nc(Nc2cccc3c2CC[C@@H]3Nc2cnc3cn(C)nc3c2)no1 [Compound 93b] | 0.05 to 0.2 |
| Cn1cc(-c2cncc(N[C@H]3CCc4c(NC(=O)c5cccc(C(F)(F)F)c5)ccc(F)c43)c2)cn1 [Compound 46d] | < 0.05 |
| Cc1cc(NC(=O)c2cccc3c2CC[C@@H]3N(C)c2cnc3cnn(C)c3c2)ccc1F [Compound 80q] | < 0.05 |
| Cc1cc2ncc(N[C@H]3CCc4c(C(=O)Nc5cccc(C6CC6)c5)cccc43)cn2n1 [Compound 74f] | < 0.05 |
| Cn1cc2ncc(N[C@H]3CCc4c(Nc5noc(C(F)(F)F)n5)cccc43)cc2n1 [Compound 93p] | > 0.5 |

| SMILES | IC50 [µM] |
| --- | --- |
| CN1CCc2cc(NC(=O)c3cccc4c3CC[C@@H]4Nc3cncc(-c4cnn(C)c4)c3)ccc2C1 [Compound 14ay] | 0.05 to 0.2 |
| Cc1ccc(F)c(NC(=O)c2cccc3c2CC[C@@H]3Oc2cnc3cn(C)nc3c2)c1 [Compound 76ax] | < 0.05 |
| Cc1cccc(NC(=O)c2ccc(F)c3c2CC[C@@H]3Nc2cnc3cn(C)nc3c2)c1F [Compound 84, (S)-7-fluoro-N-(2-fluoro-3-methylphenyl)-1-((2-methyl-2H-pyrazolo[4,3-b]pyridin-6-yl)amino)-2,3-dihydro-1H-indene-4-carboxamide] | < 0.05 |
| Cn1cc(-c2cncc(N[C@H]3CCc4c(CNC5CCCCC5)cccc43)n2)cn1 [Compound 59f] | > 0.5 |
| CN(c1cncc(-c2cnn(C)c2)c1)[C@H]1CCc2c(C(=O)Nc3nn(C)c4ccccc34)cccc21 [Compound 22g] | < 0.05 |
| CC(C)c1csc(Nc2cccc3c2CC[C@@H]3Nc2cncc(-c3cnn(C)c3)n2)n1 [Compound 35, (S)—N^4-(4-isopropylthiazol-2-yl)-N^1-(6-(1-methyl-1H-pyrazol-4-yl)pyrazin-2-yl)-2,3-dihydro-1H-indene-1,4-diamine] | 0.05 to 0.2 |
| Cn1cc(-c2cncc(N[C@H]3CCc4c(NC(=O)NCC5CC5)cccc43)n2)cn1 [Compound 65d] | > 0.5 |
| CN1CCc2cc(NC(=O)c3cccc4c3CC[C@@H]4Oc3cncc(-c4cnn(C)c4)c3)ccc2C1 [Compound 19i] | 0.05 to 0.2 |
| Cn1cc(-c2cncc(N[C@H]3CCc4c(C(=O)NC5CCCCC5)cccc43)n2)cn1 [Compound 27c] | < 0.05 |
| Cn1cc(-c2cncc(N[C@H]3CCc4c(C(=O)Nc5cccc(C(F)(F)F)c5)cccc43)c2)cn1 [Compound 14ax] | < 0.05 |
| Cn1ncc2ncc(O[C@H]3CCc4c(NC(=O)c5cccc(C6CC6)c5)cccc43)cc21 [Compound 77, (S)-3-cyclopropyl-N-(1-((1-methyl-1H-pyrazolo[4,3-b]pyridin-6-yl)oxy)-2,3-dihydro-1H-inden-4-yl)benzamide] | 0.05 to 0.2 |
| CN1CCc2cc(NC(=O)c3cccc4c3CC[C@@H]4N(C)c3cncc(-c4cnn(C)c4)c3)ccc2C1 [Compound 22e] | 0.2 to 0.5 |
| CN1CCc2nc(Nc3cccc4c3CC[C@@H]4Nc3cncc(Cl)c3)sc2C1 [Compound 42g] | > 0.5 |
| COc1cc(NC(=O)c2cccc3c2CC[C@@H]3Oc2cnc3cn(C)nc3c2)ccc1F [Compound 76aq] | < 0.05 |
| Cn1cc2ncc(N[C@H]3CCc4c(Nc5noc(C(C)(C)C(F)(F)F)n5)cccc43)cc2n1 [Compound 93f] | < 0.05 |
| CN(c1cncc(-c2cnn(C)c2)c1)[C@H]1CCc2c(C(=O)Nc3ccc(C(F)(F)F)cc3)cccc21 [Compound 20, (S)-1-(methyl (5-(1-methyl-1H-pyrazol-4-yl)pyridin-3-yl)amino)-N-(4-(trifluoromethyl)phenyl)-2,3-dihydro-1H-indene-4-carboxamide] | < 0.05 |
| Cn1cc(-c2cncc(N[C@H]3CCc4c(C(=O)Nc5ccccc5F)cccc43)c2)cn1 [Compound 14ae] | < 0.05 |
| Cc1cccc(NCc2cccc3c2CC[C@@H]3Nc2cncc(-c3cnn(C)c3)n2)c1 [Compound 59d] | 0.2 to 0.5 |
| Cn1cc(-c2cncc(N[C@H]3CCc4c(C(=O)Nc5cccc(C6CC6)c5)ccc(F)c43)c2)cn1 [Compound 50, (S)—N-(3-cyclopropylphenyl)-7-fluoro-1-((5-(1-methyl-1H-pyrazol-4-yl)pyridin-3-yl)amino)-2,3-dihydro-1H-indene-4-carboxamide] | < 0.05 |
| Cc1cc(NC(=O)c2cccc3c2CC[C@@H]3Oc2cncc(-c3cnn(C)c3)c2)ccn1 [Compound 19p] | < 0.05 |
